Patent US7056924B2, “Substituted heterocyclic compounds” (CV Therapeutics, Inc., priority 2002, dated 2006)

System: Palmitoyl CoA oxidation in rat heart mitochondria
Assay: Mitochondrial assay: Palmitoyl CoA oxidation
Assay type: biochemical
Conditions: for IC50: 16 microM 1-C14 palmitoyl CoA, 15 min at 30° C., read-out: Effect of Compounds of the Invention on Palmitoyl CoA Oxidation (IC50)
Procedure: Rat heart mitochondria were isolated by the method of Nedergard and Cannon (Methods in Enzymol. 55, 3, 1979).
Palmitoyl CoA oxidation—The Palmitoyl CoA oxidation was carried out in a total volume of 100 micro liters containing the following agents: 110 mM KCl, 33 mM Tris buffer at pH 8, 2 mM KPi, 2 mM MgCl2, 0.1 mM EDTA, 14.7 microM defatted BSA, 0.5 mM malic acid, 13 mM carnitine, 1 mM ADP, 52 micrograms of mitochondrial protein, and 16 microM 1-C14 palmitoyl CoA (Sp. Activity 60 mCi/mmole; 20 microCi/ml, using 5 microliters per assay). The compounds of this invention were added in a DMSO solution at the following concentrations: 100 micro molar, 30 micro molar, and 3 micro molar. In each assay, a DMSO control was used. After 15 min at 30° C., the enzymatic reaction was centrifuged (20,000 g for 1 min), and 70 microliters of the supernatant was added to an activated reverse phase silicic acid column (approximately 0.5 ml of silicic acid). The column was eluted with 2 ml of water, and 0.5 ml of the eluent was used for scintillation counting to determine the amount of C^14 trapped as C^14 bicarbonate ion.

Compound	IC50 [nM]	Effect on Palmitoyl CoA Oxidation, % at 30 uM (at 30 uM) [% at 30 uM]
(2R)-1-(4-{[3-(2-fluorophenyl)(1,2,4-oxadiazol-5-yl)]methyl}piperazinyl)-3-(2-methylbenzothiazol-5-yloxy)propan-2-ol	5700	–
(2R)-1-[(2S)-4-({5-[4-(dimethylamino)phenyl](1,3,4-oxadiazol-2-yl)}methyl)-2-methylpiperazinyl]-3-(2-methylbenzothiazol-5-yloxy)propan-2-ol	1480	–
(2R)-3-(2-methylbenzothiazol-5-yloxy)-1-[4-({5-[3-(trifluoromethyl)phenyl](1,2,4-oxadiazol-3-yl)}methyl)piperazinyl]propan-2-ol	–	58
Cc1nc2cc(OC[C@H](O)CN3CCN(Cc4nc5cc(-c6ccccc6)ccc5o4)CC3)ccc2s1 [(2R)-3-(2-methylbenzothiazol-5-yloxy)-1-{4-[(5-phenylbenzoxazol-2-yl)methyl]piperazinyl}propan-2-ol]	3600	–
(2R)-1-(4-{[3-(2,4-dichlorophenyl)(1,2,4-oxadiazol-5-yl)]methyl}piperazinyl)-3-(2-methylbenzothiazol-5-yloxy)propan-2-ol	1140	–
(2R)-3-{(2S)-2-methyl-4-[(5-phenylbenzoxazol-2-yl)methyl]piperazinyl}-1-(2-methylbenzothiazol-5-yloxy)propan-2-ol	2100	–
(2R)-1-(4-{[5-(4-chlorophenyl)(1,3,4-oxadiazol-2-yl)]methyl}piperazinyl)-3-(2-methylbenzothiazol-5-yloxy)propan-2-ol	8500	–
(2R)-1-(4-{[5-(2-chlorophenyl)(1,3,4-oxadiazol-2-yl)]methyl}piperazinyl)-3-(2-methylbenzothiazol-5-yloxy)propan-2-ol	2100	–
(2R)-1-{(2S)-2-methyl-4-[(5-phenyl(1,3,4-oxadiazol-2-yl))methyl]piperazinyl}-3-(2-methylbenzothiazol-5-yloxy)propan-2-ol	1570	–
(2R)-1-[(2S)-2-methyl-4-({5-[3-(trifluoromethyl)phenyl](1,3,4-oxadiazol-2-yl)}methyl)piperazinyl]-3-(2-methylbenzothiazol-5-yloxy)propan-2-ol	1050	–
(2R)-3-((2S)-4-{[5-(4-methoxyphenyl)(1,3,4-oxadiazol-2-yl)]methyl}-2-methylpiperazinyl)-1-(2-methylbenzothiazol-5-yloxy)propan-2-ol	1240	–
(2R)-3-(2-methylbenzothiazol-5-yloxy)-1-[4-({5-[4-(trifluoromethyl)phenyl](1,3,4-oxadiazol-2-yl)}methyl)piperazinyl]propan-2-ol	4800	–
(2R)-3-(2-methylbenzothiazol-5-yloxy)-1-(4-{[5-(2-methylphenyl)(1,2,4-oxadiazol-3-yl)]methyl}piperazinyl)propan-2-ol	1170	–
(2R)-1-(4-{[5-(2-chlorophenyl)(1,2,4-oxadiazol-3-yl)]methyl}piperazinyl)-3-(2-methylbenzothiazol-5-yloxy)propan-2-ol	1140	–
(2R)-3-(2-methylbenzothiazol-5-yloxy)-1-{4-[(2-phenyl(1,3-thiazol-4-yl))methyl]piperazinyl}propan-2-ol	2700	–
(2R)-1-{(2S)-2-methyl-4-[(5-(2-naphthyl)(1,3,4-oxadiazol-2-yl))methyl]piperazinyl}-3-(2-methylbenzothiazol-5-yloxy)propan-2-ol	1150	–
(2R)-1-((2S)-2-methyl-4-{[5-(4-phenylphenyl)(1,3,4-oxadiazol-2-yl)]methyl}piperazinyl)-3-(2-methylbenzothiazol-5-yloxy)propan-2-ol	1180	–
(2R)-1-[4-({5-[4-(tert-butyl)phenyl](1,3,4-oxadiazol-2-yl)}methyl)piperazinyl]-3-(2-methylbenzothiazol-5-yloxy)propan-2-ol	1100	–
(2R)-3-(2-methylbenzothiazol-5-yloxy)-1-(4-{[5-(4-phenylphenyl)(1,3,4-oxadiazol-2-yl)]methyl}piperazinyl)propan-2-ol	990	–
(2R)-1-(4-{[3-(2-chlorophenyl)(1,2,4-oxadiazol-5-yl)]methyl}piperazinyl)-3-(2-methylbenzothiazol-5-yloxy)propan-2-ol	1340	–
(2R)-3-(2-methylbenzothiazol-5-yloxy)-1-(4-{[5-(4-methylphenyl)(1,3,4-oxadiazol-2-yl)]methyl}piperazinyl)propan-2-ol	10700	–
(2R)-1-(4-{[5-(4-methoxyphenyl)(1,3,4-oxadiazol-2-yl)]methyl}piperazinyl)-3-(2-methylbenzothiazol-5-yloxy)propan-2-ol	8900	–

Further compounds by falling IC50, results first:

IC50 [nM]	Compound	Effect on Palmitoyl CoA Oxidation, % at 30 uM (at 30 uM) [% at 30 uM]
970	(2R)-3-((3S)-3-methyl-4-{[5-(4-phenylphenyl)isoxazol-3-yl]methyl}piperazinyl)-1-(2-methylbenzothiazol-5-yloxy)propan-2-ol	–
740	(2R)-3-{(3S)-3-methyl-4-[(3-(4-methoxyphenyl)isoxazol-5-yl)methyl]piperazinyl}-1-(2-methylbenzothiazol-5-yloxy)propan-2-ol	–
730	(2R)-3-((2S)-4-{[5-(3,4-dichlorophenyl)isoxazol-3-yl]methyl}-2-methylpiperazinyl)-1-(2-methylbenzothiazol-5-yloxy)propan-2-ol	–
690	(2R)-1-((2S)-4-{[5-(4-chlorophenyl)(1,3,4-oxadiazol-2-yl)]methyl}-2-methylpiperazinyl)-3-(2-methylbenzothiazol-5-yloxy)propan-2-ol	–
680	(2R)-1-((3S)-4-{[5-(2,4-dichlorophenyl)(1,2,4-oxadiazol-3-yl)]methyl}-3-methylpiperazinyl)-3-(2-methylbenzothiazol-5-yloxy)propan-2-ol	–
600	(2R)-3-[(2S)-2-methyl-4-({5-[2-chlorophenyl]isoxazol-3-yl}methyl)piperazinyl]-1-(2-methylbenzothiazol-5-yloxy)propan-2-ol	–
530	Cc1nc2cc(OC[C@H](O)CN3CCN(Cc4nnc(-c5ccc(C(F)(F)F)cc5)o4)C[C@@H]3C)ccc2s1 [(2R)-1-[(2S)-2-methyl-4-({5-[4-(trifluoromethyl)phenyl](1,3,4-oxadiazol-2-yl)}methyl)piperazinyl]-3-(2-methylbenzothiazol-5-yloxy)propan-2-ol]	–
490	(2R)-3-{(2S)-2-methyl-4-[(3-(2-thienyl)(1,2,4-oxadiazol-5-yl))methyl]piperazinyl}-1-(2-methylbenzothiazol-5-yloxy)propan-2-ol	–
410	(2R)-3-{(2S)-2-methyl-4-[(3-phenylisoxazol-5-yl)methyl]piperazinyl}-1-(2-methylbenzothiazol-5-yloxy)propan-2-ol	–
390	(2R)-1-[(2S)-4-({5-[4-(tert-butyl)phenyl](1,3,4-oxadiazol-2-yl)}methyl)-2-methylpiperazinyl]-3-(2-methylbenzothiazol-5-yloxy)propan-2-ol	–
370	(2R)-3-[(2S)-2-methyl-4-({2-[4-(trifluoromethyl)phenyl](1,3-oxazol-5-yl)}methyl)piperazinyl]-1-(2-methylbenzothiazol-5-yloxy)propan-2-ol	–
340	(2R)-1-{(3S)-3-methyl-4-[(2-phenyl(1,3-thiazol-4-yl))methyl]piperazinyl}-3-(2-methylbenzothiazol-5-yloxy)propan-2-ol	–
340	(2R)-3-((2S)-4-{[5-(2-chlorophenyl)(1,3,4-oxadiazol-2-yl)]methyl}-2-methylpiperazinyl)-1-(2-methylbenzothiazol-5-yloxy)propan-2-ol	–
250	(2R)-3-{(3S)-3-methyl-4-[(5-(3,4-dichlorophenyl)isoxazol-3-yl)methyl]piperazinyl}-1-(2-methylbenzothiazol-5-yloxy)propan-2-ol	–
250	(2R)-3-[(2S)-2-methyl-4-({5-[4-(trifluoromethyl)phenyl](1,2,4-oxadiazol-3-yl)}methyl)piperazinyl]-1-(2-methylbenzothiazol-5-yloxy)propan-2-ol	–
230	(2R)-3-(2-methylbenzothiazol-5-yloxy)-1-(4-{[3-(2-methylphenyl)(1,2,4-oxadiazol-5-yl)]methyl}piperazinyl)propan-2-ol	–
210	(2R)-1-[(3S)-3-methyl-4-({2-[4-(trifluoromethyl)phenyl](1,3-thiazol-4-yl)}methyl)piperazinyl]-3-(2-methylbenzothiazol-5-yloxy)propan-2-ol	–
140	Cc1nc2cc(OC[C@H](O)CN3CCN(Cc4cc(-c5ccc(Cl)cc5)on4)C[C@@H]3C)ccc2s1 [(2R)-3-[(2S)-2-methyl-4-({5-[4-chlorophenyl]isoxazol-3-yl}methyl)piperazinyl]-1-(2-methylbenzothiazol-5-yloxy)propan-2-ol]	–
100	Cc1nc2cc(OC[C@H](O)CN3CCN(Cc4nc(-c5ccc(Cl)cc5Cl)no4)C[C@@H]3C)ccc2s1 [(2R)-1-((2S)-4-{[3-(2,4-dichlorophenyl)(1,2,4-oxadiazol-5-yl)]methyl}-2-methylpiperazinyl)-3-(2-methylbenzothiazol-5-yloxy)propan-2-ol]	–
60	(2R)-3-{(3S)-3-methyl-4-[(5-(2-chlorophenyl)isoxazol-3-yl)methyl]piperazinyl}-1-(2-methylbenzothiazol-5-yloxy)propan-2-ol	–
